This note sets out measurements from patent US11332459B2 (TEIJIN PHARMA LIMITED, priority 2017, dated 2022).

For this assay, the target named is T1, human TRPC6 (Homo sapiens, UniProt Q9Y210).
T1 construct: expressed in transfected cells
T1 sequence (Q9Y210 1-931): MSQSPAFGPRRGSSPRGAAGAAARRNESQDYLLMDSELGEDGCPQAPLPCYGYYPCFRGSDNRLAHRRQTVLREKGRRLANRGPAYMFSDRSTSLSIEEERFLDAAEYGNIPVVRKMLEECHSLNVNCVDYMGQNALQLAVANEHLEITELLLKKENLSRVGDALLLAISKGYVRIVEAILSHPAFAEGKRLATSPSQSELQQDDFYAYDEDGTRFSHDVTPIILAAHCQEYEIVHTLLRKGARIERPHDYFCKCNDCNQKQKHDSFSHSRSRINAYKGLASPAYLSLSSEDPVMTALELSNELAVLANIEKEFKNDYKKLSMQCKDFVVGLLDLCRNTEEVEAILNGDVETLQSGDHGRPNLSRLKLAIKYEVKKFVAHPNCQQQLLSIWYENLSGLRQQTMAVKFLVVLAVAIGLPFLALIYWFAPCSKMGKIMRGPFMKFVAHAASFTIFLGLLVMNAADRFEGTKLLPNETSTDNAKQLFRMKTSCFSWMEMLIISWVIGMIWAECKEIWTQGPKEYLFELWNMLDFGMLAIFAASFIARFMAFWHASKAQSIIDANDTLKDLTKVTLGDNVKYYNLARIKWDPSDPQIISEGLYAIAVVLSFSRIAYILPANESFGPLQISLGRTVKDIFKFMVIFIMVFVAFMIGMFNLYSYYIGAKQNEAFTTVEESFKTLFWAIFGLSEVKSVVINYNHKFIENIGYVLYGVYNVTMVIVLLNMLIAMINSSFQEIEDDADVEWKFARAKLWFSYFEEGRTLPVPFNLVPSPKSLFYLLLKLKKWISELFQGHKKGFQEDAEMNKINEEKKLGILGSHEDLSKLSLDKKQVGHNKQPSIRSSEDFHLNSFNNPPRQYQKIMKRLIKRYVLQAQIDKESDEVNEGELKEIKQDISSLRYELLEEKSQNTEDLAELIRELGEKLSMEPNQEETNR
Briefly: TRPC6 calcium flux assay (FLIPR, OAG-stimulated calcium influx). The following applies: HEK293 cells stably transfected with human TRPC6, read-out: hTRPC6 Potency. In kind it is cell-based. The procedure, abridged: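 IC50 derived by plotting background-corrected peak fluorescence (180 s window, normalized to OAG-triggered signal vs buffer) against dose. Stable human TRPC6 HEK293 line was dye-loaded, exposed to compound 25 min, then challenged with 50 uM final OAG in 2 mM Ca2+ HEPES buffer pH 7.2, 0.5% DMSO.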
Background: A change in cytosolic calcium serves as a functional read-out for many receptors and channels.
Turning to `C[C@H](c1ccc(C#N)cn1)n1c(N2CC[C@H]3OCCN[C@@H]3C2)nc2c(F)cc(F)cc21` [Example 267, 6-((1R)-1-(4,6-difluoro-2-((4aR,8aR)-hexahydro-2H-pyrido[4,3-b][1,4]oxazin-6(5H)-yl)-1H-benzimidazol-1-yl)ethyl)-3-pyridinecarbonitrile], the IC50 is above 50000 nM.
On to `C[C@H](c1ccc(C#N)cn1)n1c(N2CC[C@@H]3OCCN[C@H]3C2)nc2c(F)cc(F)cc21` [Example 268, 6-((1R)-1-(4,6-difluoro-2-((4aS,8aS)-hexahydro-2H-pyrido[4,3-b][1,4]oxazin-6(5H)-yl)-1H-benzimidazol-1-yl)ethyl)-3-pyridinecarbonitrile], for which the IC50 is above 50000 nM.
Take `C[C@@H](c1ccc(C#N)cn1)n1c(N2CC[C@@H]3OCCN[C@H]3C2)nc2c(F)cc(F)cc21` [Example 269, 6-((1S)-1-(4,6-difluoro-2-((4aS,8aS)-hexahydro-2H-pyrido[4,3-b][1,4]oxazin-6(5H)-yl)-1H-benzimidazol-1-yl)ethyl)-3-pyridinecarbonitrile]: the IC50 was determined as 2.04 nM.
As for `C[C@@H](c1ccc(C#N)cn1)n1c(N2CC[C@H]3OCCN[C@@H]3C2)nc2c(F)cc(F)cc21` [Example 270, 6-((1S)-1-(4,6-difluoro-2-((4aR,8aR)-hexahydro-2H-pyrido[4,3-b][1,4]oxazin-6(5H)-yl)-1H-benzimidazol-1-yl)ethyl)-3-pyridinecarbonitrile], the IC50 turned out to be 51.5 nM.
In the case of `C[C@H](c1ccc(C#N)cn1)n1c(N2CC[C@H]3OCCN[C@@H]3C2)nc2cc(F)cc(F)c21` [Example 271, 6-((1R)-1-(5,7-difluoro-2-((4aR,8aR)-hexahydro-2H-pyrido[4,3-b][1,4]oxazin-6(5H)-yl)-1H-benzimidazol-1-yl)ethyl)-3-pyridinecarbonitrile], the IC50 is 158 nM.
Turning to `C[C@H](c1ccc(C#N)cn1)n1c(N2CC[C@@H]3OCCN[C@H]3C2)nc2cc(F)cc(F)c21` [Example 272, 6-((1R)-1-(5,7-difluoro-2-((4aS,8aS)-hexahydro-2H-pyrido[4,3-b][1,4]oxazin-6(5H)-yl)-1H-benzimidazol-1-yl)ethyl)-3-pyridinecarbonitrile], the IC50 was found to be 2.81 nM.
For the molecule `C[C@@H](c1ccc(C#N)cn1)n1c(N2CC[C@@H]3OCCN[C@H]3C2)nc2cc(F)cc(F)c21` [Example 273, 6-((1S)-1-(5,7-difluoro-2-((4aS,8aS)-hexahydro-2H-pyrido[4,3-b][1,4]oxazin-6(5H)-yl)-1H-benzimidazol-1-yl)ethyl)-3-pyridinecarbonitrile], the IC50 turned out to be 13.7 nM.
The figure for `C[C@@H](c1ccc(C#N)cn1)n1c(N2CC[C@H]3OCCN[C@@H]3C2)nc2cc(F)cc(F)c21` [Example 274, 6-((1S)-1-(5,7-difluoro-2-((4aR,8aR)-hexahydro-2H-pyrido[4,3-b][1,4]oxazin-6(5H)-yl)-1H-benzimidazol-1-yl)ethyl)-3-pyridinecarbonitrile] is 0.328 nM.
For the molecule `CNC(=O)Cn1c(N2CC[C@@H](F)[C@H](N)C2)nc2cc(F)c(F)cc21` [Example 275, 2-(2-((3R,4R)-3-amino-4-fluoro-1-piperidinyl)-5,6-difluoro-1H-benzimidazol-1-yl)-N-methylacetamide], the IC50 stood at 0.32 nM.
`N[C@@H]1CN(c2nc3cc(F)c(F)cc3n2CC(=O)N2CCOCC2)CC[C@H]1F` [Example 276, 2-(2-((3R,4R)-3-amino-4-fluoro-1-piperidinyl)-5,6-difluoro-1H-benzimidazol-1-yl)-1-(4-morpholinyl)ethanone]: the IC50 was 42.2 nM.
As for `N[C@@H]1CN(c2nc3cc(F)c(F)cc3n2CC(=O)N2CCCC2)CC[C@H]1F` [Example 277, 2-(2-((3R,4R)-3-amino-4-fluoro-1-piperidinyl)-5,6-difluoro-1H-benzimidazol-1-yl)-1-(1-pyrrolidinyl)ethanone], the figure is 0.49 nM; as for `CN(C)C(=O)Cn1c(N2CC[C@@H](F)[C@H](N)C2)nc2cc(F)c(F)cc21` [Example 278, 2-(2-((3R,4R)-3-amino-4-fluoro-1-piperidinyl)-5,6-difluoro-1H-benzimidazol-1-yl)-N,N-dimethylacetamide], 737 nM; as for `C[C@H](C(=O)N(C)C)n1c(N2CC[C@@H](F)[C@H](N)C2)nc2cc(F)c(F)cc21` [Example 279], 7.16 nM.
With `C[C@@H](C(=O)N(C)C)n1c(N2CC[C@@H](F)[C@H](N)C2)nc2cc(F)c(F)cc21` [Example 280, (2S)-2-(2-((3R,4R)-3-amino-4-fluoro-1-piperidinyl)-5,6-difluoro-1H-benzimidazol-1-yl)-N,N-dimethylpropanamide], the IC50 was found to be 1.47 nM.
As for `N[C@@H]1CN(c2nc3cc(F)c(F)cc3n2CC(=O)N2CCCCC2)CC[C@H]1F` [Example 281, 2-(2-((3R,4R)-3-amino-4-fluoro-1-piperidinyl)-5,6-difluoro-1H-benzimidazol-1-yl)-1-(1-piperidinyl)ethanone], the figure is 26.9 nM; as for `CCNC(=O)Cn1c(N2CC[C@@H](F)[C@H](N)C2)nc2cc(F)c(F)cc21` [Example 282, 2-(2-((3R,4R)-3-amino-4-fluoro-1-piperidinyl)-5,6-difluoro-1H-benzimidazol-1-yl)-N-ethylacetamide], 150 nM; as for `CN[C@@H]1CN(c2nc3ccc(C#N)cc3n2Cc2ncc(Cl)cn2)CC[C@H]1F` [Example 283, 1-((5-chloro-2-pyrimidinyl)methyl)-2-((3R,4R)-4-fluoro-3-(methylamino)-1-piperidinyl)-1H-benzimidazole-6-carbonitrile], 23.8 nM.
The figure for `CN[C@@H]1CN(c2nc3cc(C#N)ccc3n2Cc2ncc(Cl)cn2)CC[C@H]1F` [Example 284, 1-((5-chloro-2-pyrimidinyl)methyl)-2-((3R,4R)-4-fluoro-3-(methylamino)-1-piperidinyl)-1H-benzimidazole-5-carbonitrile] is 223 nM; for `N[C@@H]1CN(c2nc3ccc(Cl)cc3n2CC(=O)N2CCC2)CC[C@H]1F` [Example 285, 2-(2-((3R,4R)-3-amino-4-fluoro-1-piperidinyl)-6-chloro-1H-benzimidazol-1-yl)-1-(1-azetidinyl)ethanone] it is 185 nM.
On to `N[C@@H]1CN(c2nc3cc(Cl)ccc3n2CC(=O)N2CCC2)CC[C@H]1F` [Example 286, 2-(2-((3R,4R)-3-amino-4-fluoro-1-piperidinyl)-5-chloro-1H-benzimidazol-1-yl)-1-(1-azetidinyl)ethanone], for which the IC50 was determined as 562 nM.
`N#Cc1ccc2nc(N3CC[C@H](F)[C@H](N)C3)n(CC(=O)N3CCC3)c2c1` [Example 287, 2-((3R,4S)-3-amino-4-fluoro-1-piperidinyl)-1-(2-(1-azetidinyl)-2-oxoethyl)-1H-benzimidazole-6-carbonitrile]: the IC50 came to 10.7 nM.
As for `N#Cc1ccc2c(c1)nc(N1CC[C@H](F)[C@H](N)C1)n2CC(=O)N1CCC1` [Example 288, 2-((3R,4S)-3-amino-4-fluoro-1-piperidinyl)-1-(2-(1-azetidinyl)-2-oxoethyl)-1H-benzimidazole-5-carbonitrile], the figure is above 3750 nM; as for `N[C@@H]1CN(c2nc3ccc(F)cc3n2Cc2ncc(Cl)cn2)CC[C@H]1F` [Example 289, (3R,4R)-1-(1-((5-chloropyrimidin-2-yl)methyl)-6-fluoro-1H-benzo[d]imidazol-2-yl)-4-fluoropiperidin-3-amine], 73.5 nM.
